What was measured:
Assay type in all cases: in vivo
[1] = system: barnyardgrass (Echinochloa crus-galli); assay: Test B flooded paddy test, barnyardgrass; details: 250 g ai/ha, applied to paddy water, visual rating after 13 to 15 days, scale 0 (no effect) to 100 (complete control)
Source text: (§1) At time of treatment, test pots were flooded to 3 cm above the soil surface, treated by application of test compounds directly to the paddy water, and then maintained at that water depth for the duration of the test. Treated plants and controls were maintained in a greenhouse for 13 to 15 days, after which time all species were compared to controls and visually evaluated. […] A dash (-) response means no test result.

[2] = system: barnyardgrass (Echinochloa crus-galli); assay: Test A postemergence, barnyardgrass; details: visual injury, 0 to 100 scale (0 no effect, 100 complete control), approximately 10 days
Summary of the method: (§2)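 Greenhouse test: compounds in solvent with surfactant sprayed onto loam–sand soil after planting (preemergence) or onto plants 2-10 cm at the one- to two-leaf stage (postemergence). Injury visually rated versus untreated controls after about 10 days on a 0-100 scale (100 = complete control).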

[3] = system: ryegrass, Italian (Lolium multiflorum); assay: Test A preemergence, Italian ryegrass; details: 0 to 100 scale (0 no effect, 100 complete control)
Summary of the method: as §2

[4] = system: pigweed (Amaranthus retroflexus); assay: Test A preemergence, pigweed; details: 0 to 100 scale (0 no effect, 100 complete control)
Summary of the method: as §2

[5] = system: foxtail, giant (Setaria faberii); assay: Test A postemergence, giant foxtail; details: visual injury, 0 to 100 scale (0 no effect, 100 complete control), approximately 10 days
Summary of the method: as §2

[6] = system: sedge, umbrella (small-flower umbrella sedge, Cyperus difformis); assay: Test B flooded paddy test, umbrella sedge; details: 250 g ai/ha, applied to paddy water, visual rating after 13 to 15 days, scale 0 (no effect) to 100 (complete control)
Source text: as §1

[7] = system: ragweed (common ragweed, Ambrosia elatior); assay: Test A preemergence, ragweed; details: 0 to 100 scale (0 no effect, 100 complete control)
Summary of the method: as §2

[8] = system: barnyardgrass (Echinochloa crus-galli); assay: Test A preemergence, barnyardgrass; details: 0 to 100 scale (0 no effect, 100 complete control)
Summary of the method: as §2

[9] = system: foxtail, giant (Setaria faberii); assay: Test A preemergence, giant foxtail; details: 0 to 100 scale (0 no effect, 100 complete control)
Summary of the method: as §2

kochia (Kochia scoparia) [10] = assay: Test A postemergence, kochia; details: visual injury, 0 to 100 scale (0 no effect, 100 complete control), approximately 10 days
Summary of the method: as §2

[11] = system: ryegrass, Italian (Lolium multiflorum); assay: Test A postemergence, Italian ryegrass; details: visual injury, 0 to 100 scale (0 no effect, 100 complete control), approximately 10 days
Summary of the method: as §2

kochia (Kochia scoparia) [12] = assay: Test A preemergence, kochia; details: 0 to 100 scale (0 no effect, 100 complete control)
Summary of the method: as §2

[13] = system: ducksalad (Heteranthera limosa); assay: Test B flooded paddy test, ducksalad; details: 250 g ai/ha, applied to paddy water, visual rating after 13 to 15 days, scale 0 (no effect) to 100 (complete control)
Source text: as §1

[14] = system: pigweed (Amaranthus retroflexus); assay: Test A postemergence, pigweed; details: visual injury, 0 to 100 scale (0 no effect, 100 complete control), approximately 10 days
Summary of the method: as §2

[15] = system: galium (catchweed bedstraw, Galium aparine); assay: Test A postemergence, galium; details: visual injury, 0 to 100 scale (0 no effect, 100 complete control), approximately 10 days
Summary of the method: as §2

[16] = system: wheat (Triticum aestivum); assay: Test A postemergence, wheat; details: visual injury, 0 to 100 scale (0 no effect, 100 complete control), approximately 10 days
Summary of the method: as §2

corn (Zea mays) = assay: Test A postemergence, corn; details: visual injury, 0 to 100 scale (0 no effect, 100 complete control), approximately 10 days
Summary of the method: as §2

[17] = system: ragweed (common ragweed, Ambrosia elatior); assay: Test A postemergence, ragweed; details: visual injury, 0 to 100 scale (0 no effect, 100 complete control), approximately 10 days
Summary of the method: as §2

rice (Oryza sativa) = assay: Test B flooded paddy test, rice; details: 250 g ai/ha, applied to paddy water, visual rating after 13 to 15 days, scale 0 (no effect) to 100 (complete control)
Source text: as §1

[18] = system: blackgrass (Alopecurus myosuroides); assay: Test A postemergence, blackgrass; details: visual injury, 0 to 100 scale (0 no effect, 100 complete control), approximately 10 days
Summary of the method: as §2

| Structure (SMILES) | Plant response rating, Barnyardgrass (Flood) [1] | Plant response rating, Barnyardgrass ([2]; 125 g ai/ha) | Plant response rating, Barnyardgrass ([2]; 500 g ai/ha) | Plant response rating, Ryegrass, Italian ([3]; 125 g ai/ha) | Plant response rating, Ryegrass, Italian ([3]; 500 g ai/ha) | Plant response rating, Pigweed ([4]; 125 g ai/ha) | Plant response rating, Pigweed ([4]; 500 g ai/ha) | Plant response rating, Foxtail, Giant ([5]; 125 g ai/ha) | Plant response rating, Foxtail, Giant ([5]; 500 g ai/ha) | Plant response rating, Sedge, Umbrella (Flood) [6] | Plant response rating, Ragweed ([7]; 125 g ai/ha) | Plant response rating, Ragweed ([7]; 500 g ai/ha) | Plant response rating, Barnyardgrass ([8]; 125 g ai/ha) | Plant response rating, Barnyardgrass ([8]; 500 g ai/ha) | Plant response rating, Foxtail, Giant ([9]; 125 g ai/ha) | Plant response rating, Foxtail, Giant ([9]; 500 g ai/ha) | Plant response rating, Kochia (kochia (Kochia scoparia) [10]; 125 g ai/ha) | Plant response rating, Kochia (kochia (Kochia scoparia) [10]; 500 g ai/ha) | Plant response rating, Ryegrass, Italian ([11]; 125 g ai/ha) | Plant response rating, Ryegrass, Italian ([11]; 500 g ai/ha) | other results |
| --- | --- | --- | --- | --- | --- | --- | --- | --- | --- | --- | --- | --- | --- | --- | --- | --- | --- | --- | --- | --- | --- |
| CN1CC(c2cccc(Oc3ncc(F)cn3)c2)C(C(=O)Nc2cccc(F)c2F)C1=O (single isomer, unassigned) [Compound 38] | 60 | 100 | 100 | 80 | 100 | 80 | 100 | 90 | 90 | 0 | 40 | 80 | 90 | 100 | 100 | 100 | 30 | 60 | 70 | 80 | Plant response rating, Kochia (kochia (Kochia scoparia) [12]; 125 g ai/ha): 30; Plant response rating, Kochia (kochia (Kochia scoparia) [12]; 500 g ai/ha): 70; Plant response rating, Ducksalad (Flood) [13]: 80; Plant response rating, Pigweed ([14]; 125 g ai/ha): 50; Plant response rating, Pigweed ([14]; 500 g ai/ha): 70; Plant response rating, Galium ([15]; 125 g ai/ha): 50; Plant response rating, Galium ([15]; 500 g ai/ha): 70; Plant response rating, Wheat ([16]; 125 g ai/ha): 50; Plant response rating, Wheat ([16]; 500 g ai/ha): 70; Plant response rating, Corn (corn (Zea mays); 125 g ai/ha): 90; Plant response rating, Corn (corn (Zea mays); 500 g ai/ha): 100; Plant response rating, Ragweed ([17]; 125 g ai/ha): 20; Plant response rating, Ragweed ([17]; 500 g ai/ha): 80; Plant response rating, Rice (Flood) (rice (Oryza sativa)): 0; Plant response rating, Blackgrass ([18]; 125 g ai/ha): 70; Plant response rating, Blackgrass ([18]; 500 g ai/ha): 70 |
| O=C1NCC(c2cccc(Oc3ncc(F)cn3)c2)C1C(=O)Nc1ccccc1F (single isomer, unassigned) [Compound 39] | 0 | 70 | 100 | 0 | 60 | 0 | 0 | 70 | 80 | 0 | 0 | 50 | 70 | 90 | 90 | 100 | 0 | 0 | 0 | 20 | Plant response rating, Kochia (kochia (Kochia scoparia) [12]; 125 g ai/ha): 30; Plant response rating, Kochia (kochia (Kochia scoparia) [12]; 500 g ai/ha): 50; Plant response rating, Ducksalad (Flood) [13]: 75; Plant response rating, Pigweed ([14]; 125 g ai/ha): 0; Plant response rating, Pigweed ([14]; 500 g ai/ha): 20; Plant response rating, Galium ([15]; 125 g ai/ha): 0; Plant response rating, Galium ([15]; 500 g ai/ha): 30; Plant response rating, Wheat ([16]; 125 g ai/ha): 0; Plant response rating, Wheat ([16]; 500 g ai/ha): 60; Plant response rating, Corn (corn (Zea mays); 125 g ai/ha): 30; Plant response rating, Corn (corn (Zea mays); 500 g ai/ha): 70; Plant response rating, Ragweed ([17]; 125 g ai/ha): 0; Plant response rating, Ragweed ([17]; 500 g ai/ha): 30; Plant response rating, Rice (Flood) (rice (Oryza sativa)): 0; Plant response rating, Blackgrass ([18]; 125 g ai/ha): 0; Plant response rating, Blackgrass ([18]; 500 g ai/ha): 40 |

From patent US10405547B2, “Substituted cyclic amides as herbicides” (FMC Corporation, priority 2015, dated 2019)
